In patent US12594257B2, “Means and methods for improving anti-tumoral efficacy of transmembrane channel protein blockers” (ARDAN PHARMA S.A.S., priority 2021, dated 2026):
“Also recorded” adds a separate entry of the source. Where two headings read alike, the source gives them in different places.

Tests used:
murine cancer models = settings: cited from earlier work; for Tumor growth, preventive protocol: before tumor establishment
[1] = mouse, in vivo; cited from earlier work
E.G7-OVA thymic lymphoma = assay: Therapeutic treatment of established E.G7-OVA tumors, intratumoral injection; assay type: in vivo, mouse; settings: WT mice, established EG7 tumors, i.t. 70 nmoles every two days, five injections; vs eNPs or vehicle
Procedure: Tumor Models and Treatments: WT and Tmem176b^−/− C57BL/6 mice were injected s.c with 0.5×10^6 E.G7-OVA thymic lymphoma cells. At the indicated experiment, injection was performed alternating one Tmem176b and one Tmem176b^−/− mouse until completing both groups. In treated animals, alternation was done between (+)-BayK8644- and vehicle-treated animals or NP-BayK8644 and eNP-treated animals. Tumor growth was caliper measured manually every 2-3 days, and the two major diameters were taken. 70 nmoles of free (+)-BayK8644 or (+)-BayK8644 encapsulated in chitosan nanoparticles, or the same amount of empty NPs injections were repeated at the +2, +4, +6, +8 days after the first injection. Mice were sacrificed when one of the major tumor diameters reached 2 cm.
WT and Tmem176b^−/− animals were inoculated with EG7 tumors. Once tumors reached 25 mm^2, animals were i.t. injected with 70×10^−9 moles of (+)-BayK8644, NP-PEG-BayK8644 or eNP-PEG. Treatments were repeated every two days reaching a total of five injections. Mice were euthanized when the longer diameter reached tumors reached […].

CD11c+ splenic DCs = assay: Antigen cross-presentation assay in mouse splenic dendritic cells (B3Z T cell activation, β-galactosidase readout); assay type: cell-based
Procedure: Antigen cross-presentation assays in mouse splenic dendritic cells: To obtain splenic DCs, spleen of C57BL/6 mice was extracted, cut into small pieces and treated with collagenase-D (Roche, Merck). After 30 minutes of incubation at 37° C., the enzymatic reaction was stopped with a 10 mM EDTA solution. Lysis of red blood cells was performed with an ammonium chloride solution. Finally, cells were washed with PBS/SFB1%. […] Briefly, splenic cells were labeled with anti-CD11c antibodies conjugated to the beads. The cells were allowed to pass through a magnetic column subjected to a magnetic field. Thereby, CD11c^+ cells were retained on the column. […]
CD11c^+ spleen cells were incubated with 3 mg/mL of soluble OVA, or OVA plus 20 μM of free (+)-BayK8644, 20 μM of (+)-BayK8644 encapsulated into chitosan nanoparticles (NP-BayK8644) or empty counterpart (eNP) for 4 hours in supplemented-RPMI medium. […] The activation of B3Z cell line was measured detecting β-galactosidase activity by optical density (absorbance at 595-655 nm) using chlorophenol red-β-D-galactopyranoside (CPRG; Roche) as substrate for the reaction.
(+)-BayK8644 inhibits antigen cross-presentation by splenic DCs in vitro: We first studied whether (+)-BayK8644 inhibits antigen cross-presentation in vitro. […] B3Z T cell activation was measured by assessing β-galactosidase activity in a colorimetric assay. […]

[2] = tested on: L-type voltage-gated Ca2+ channels; settings: cited from earlier work

SMILES	Tumor growth, preventive protocol (murine cancer models)	Tumor growth, preventive protocol (murine cancer models; listed as BayK8644)	Caspase-1 activation in the TDLN (murine cancer models; i.p)	Tumor growth, therapeutic protocol (murine cancer models; mice bearing established tumors)	Toxicities in mice [1]	Mouse survival (E.G7-OVA thymic lymphoma)	Tumor growth (E.G7-OVA thymic lymphoma)	B3Z T cell activation by DCs loaded with OVA protein (cross-presentation) (CD11c+ splenic DCs; 3 mg/ml soluble OVA 4 hours, 10 μM or 20 μM)	B3Z T cell activation by DCs loaded with OVA peptide SIINFEKL (CD11c+ splenic DCs; SIINFEKL 45 minutes, 20 μM)	Effect on L-type Ca++ channels [2]
COC(=O)C1=C(C)NC(C)=C([N+](=O)[O-])C1c1ccccc1C(F)(F)F (single isomer, unassigned; (+)) [(+)-BayK8644]	controlled tumor growth; also recorded: controlled its growth	controlled tumor growth	increased Caspase-1 activation	failed to do so	not associated with toxicities	failed	failed to control tumor growth	significantly decreased their capacity to activate B3Z cells	did not inhibit activation of B3Z cells	inhibitor
COC(=O)C1=C(C)NC(C)=C([N+](=O)[O-])C1c1ccccc1C(F)(F)F (single isomer, unassigned; (-)) [(−)-BayK8644]										agonists
